Measurements from patent US9604987B2, “Synthesis of autophagy inducing compound and the uses thereof” (Hong Kong Baptist University, priority 2012, dated 2017).
Like-named read-outs stand apart in the source and are kept apart here.

What was measured:
N2a GFP-LC3 cells = test: GFP-LC3 puncta formation in N2a cells constantly expressing GFP-LC3 (confocal); assay type: cell-based, mouse; settings: for pro-autophagic activity (GFP-LC3 puncta): 50 μM, 12 hours
Procedure: Cell imaging and puncta counting. Cells were fixed in 3.7% paraformaldehyde (158127, Sigma) for 10 minutes and mounted with FluorSave reagent. Cell images were recorded using a fluorescence microscope or confocal microscope. GFP or RFP Puncta number were counted in cells as described previously. Briefly, the GFP-LC3 or RFP-LC3 puncta in each cell were manually counted, and at least 50 cells were randomly selected for counting in each group. The data presented were from one representative experiment of at least 3 independent experiments.
Further, a neuroblastoma cell line N2a constantly expressing GFP-LC3 (a standard autophagy marker protein) is established. The formation of GFP-LC3 puncta under Cory B treatment is observed under a confocal microscope. Data is presented as the mean±SEM of one representative experiment from three independent experiments. (*p<0.05, ***p<0.001, one-way ANOVA for multiple comparison and Tukey's test as post hoc test).
To confirm that enhancement of autophagy markers by Cory B is due to induction of autophagy rather than blockage of autophagosome maturation, N2a cells are treated with 25 μM Cory B or 30 μM lysosome inhibitor CQ together with Cory B for 12 hours. Cell lysates are subject to western blot analysis. Data are presented as the mean±SEM from 3 independent experiments (***p<0.001, one-way ANOVA for multiple comparison and Tukey's test as post hoc test). Both LC3-II levels and the number of GFP-LC3 puncta in the Cory B and CQ co-treatment group are much higher than in the CQ-alone treatment group (FIG. 2A-D). Meanwhile, Cory B induces GFP-LC3 puncta formation is abolished by treatment of 5 mM autophagy inhibitor 3-MA for 24 hours (FIG. 2C, D). Cells were fixed in 4% paraformaldehyde and analyzed under a confocal microscope. Data are presented as the mean±SEM of one representative experiment from three independent experiments. (***p<0.001, one-way ANOVA for multiple comparison and Tukey's test as post hoc test). […] Thus, Cory B is indeed an autophagy inducer in neuronal cells.
In order to observe the pro-autophagic activity of CB6 and CB8 intuitively, N2a cells constantly expressing GFP-LC3 are treated with 50 μM Cory B, CB6 and CB8 for 12 hours respectively. The cells are than fixed with 4% paraformaldehyde (Sigma, 158127) for 10 minutes, and then mounted with VECTASHIELD hardset anti-fade mounting medium. The mounted samples are then subjected to confocal microscopy analysis.
After designated treatments, N2a cells constantly expressing GFP-LC3 were fixed with 4% paraformaldehyde (Sigma, 158127) for 10 min, and then mounted with VECTASHIELD hardset antifade mounting medium. The mounted samples were then subjected to confocal microscopy analysis.

[1] = Pharmacokinetic study of Cory B, CB6 and CB8 in rats (plasma, LC/MS/MS, NCA); design: species or system Male Sprague-Dawley (SD) rats; settings: rat, in vivo, 1 mg/kg; for AUC / Cmax / MRT / half-life: male, Sprague-Dawley
Procedure: Male Sprague-Dawley (SD) rats (weighting ˜200 g) used in the experiment are provided by Laboratory Animal Services Center of The Chinese University of Hong Kong (Hong Kong SAR, People's Republic of China). Cory B (n=3), CB6 (n=6) and CB8 (n=6). For the jugular vein cannulation surgery, the rats are anesthetized (intramuscular injection of a mixture of 80 mg/kg ketamine and 8 mg/kg xylazine) followed by inserting a polyethylene tube (0.5 mm ID, 1 mm OD, Portex Ltd., England) into the right jugular vein. The cannulated rats are allowed to recover overnight while fasting with free access to water. For intravenous (IV) administrations, Cory B, CB6 or CB8 (200 μg/mL, dissolved in saline containing 9.2% PEG400+0.5% DMSO, w/w) is given through the jugular vein catheter at 1 mg/kg. For intranasal (IN) administration, 10 μL of Cory B, CB6 or CB8 (10 mg/mL, dissolved with 40% PEG400, 10% DMSO in H2O, w/w) is given to each nostril of rats. At pre-determined time points post-dosing (5, 10, 20, 30, 60, 120, 240 and 360 min for IV and IN administration groups), approximately 200 μL blood is collected into a heparinized centrifuge tube containing 5 μM EDTA followed by centrifugation at 3000 rpm for 5 min to obtain the plasma. To 100 μL rat plasma sample, an aliquot of 100 μL internal standard (IS) and 100 μL of acetonitrile are added. The mixture is mixed for 1 min by vortex and then centrifuged for 10 min at 13,200 rpm. 200 μL of supernatant is transferred into centrifuge tubes and mixed with 200 μL of H2O containing 4% formic acid (FA). After another round of vortex and centrifugation, 10 μL of the supernatant is subjected to LC/MS/MS for quantification of Cory B, CB6 or CB8 with an established LC/MS/MS method. Pharmacokinetic parameters from non-compartmental analysis (NCA) are calculated using WinNonLin. The pharmacokinetic parameters and profiles of each analytes are shown as below.

SMILES	pro-autophagic activity (GFP-LC3 puncta) (N2a GFP-LC3 cells)	AUC ([1]; inhaled or intranasal) [ng·h/mL]	Cmax ([1]; inhaled or intranasal) [ng/mL]	MRT ([1]; inhaled or intranasal) [h]	half-life ([1]; inhaled or intranasal) [h]	AUC ([1]; iv) [ng·h/mL]	Cmax ([1]; iv) [ng/mL]	MRT ([1]; iv) [h]	half-life ([1]; iv) [h]	Tmax (time to reach Cmax) ([1]; inhaled or intranasal) [min]	Cmax and Area Under Curve (AUC) in comparison Cory B ([1]; iv)	also measured
C=CCN1C(=O)[C@]2(CCN3C[C@@H](CC)[C@@H](/C(=C\OC)C(=O)OC)C[C@H]32)c2ccccc21 [CB8]	confirmed to be autophagy inducers	124	129 ± 61	1.95	1.65 ± 0.217	102	143 ± 42	1.65	1.87 ± 0.433	5 ± 0	greater	–
CC[C@@H]1CN2CC[C@]3(C(=O)Nc4ccccc43)C2C[C@@H]1C(=COC)C(=O)OC (some centres unmarked) [Cory B, Corynoxine B]	–	–	–	–	–	–	–	–	–	–	–	GFP-LC3 puncta formation in presence of autophagy inhibitor 3-MA (N2a GFP-LC3 cells; 5 mM 3-MA, 24 hours): abolished; GFP-LC3 puncta formation (N2a GFP-LC3 cells; N2a GFP-LC3 cells, Cory B treatment): induces massive GFP-LC3 puncta formation; AUC ([1]; inhaled or intranasal, rats, intranasal, read-out: AUC (area under the curve) (converted)): 92.6 ng·h/mL; Cmax ([1]; inhaled or intranasal, rats, intranasal, read-out: Cmax (maximum plasma concentration)): 145 ± 62 ng/mL; MRT ([1]; inhaled or intranasal, rats, intranasal, read-out: MRT (mean residence time) (converted)): 2.22 h; half-life ([1]; inhaled or intranasal, rats, intranasal, read-out: t1/2 (plasma half-life)): 1.93 ± 0.233 h; AUC ([1]; rats, intravenous, read-out: AUC (area under the curve) (converted)): 63.6 ng·h/mL; Cmax ([1]; rats, intravenous, read-out: Cmax (maximum plasma concentration)): 66 ± 8 ng/mL; MRT ([1]; rats, intravenous, read-out: MRT (mean residence time) (converted)): 2.3 h; half-life ([1]; rats, intravenous, read-out: t1/2 (plasma half-life)): 2.13 ± 0.367 h
CCCN1C(=O)[C@]2(CCN3C[C@@H](CC)[C@@H](/C(=C\OC)C(=O)OC)C[C@H]32)c2ccccc21 [CB6]	confirmed to be autophagy inducers	200	244 ± 33	1.83	1.93 ± 0.133	248	520 ± 177	1.58	2 ± 0.25	5 ± 0	greater	–
